Like-named read-outs stand apart in the source and are kept apart here. Bridge positions count the residues as written; N and C are the ends. Peptide text beside a SMILES is read from it.
Experiments:
G+ Bacteria = test: Geometric mean of MICs and TI value; format: cell-based; conditions: geometric mean of MICs against tested Gram-positive bacteria
Procedure: The therapeutic potential of antimicrobial agents was valued based on their selectivity toward bacteria in reference to erythrocytes. The TI value was calculated from the results of antibacterial and haemolysis experiments of peptides using the following formula:TI value = HC10 / GMMICs.
GM was the geometric mean of MICs against all tested bacteria.

P. aeruginosa 14 biofilm = conditions: checkerboard MBIC, 24 h, crystal violet, 595 nm
Procedure: (§1) Parameter fractional inhibitory concentration indices (FICIs) were used to evaluate the synergistic effect, and the value of that was calculated as follows:FICI = FICa + FICb FICa = MIC combination peptide/MIC single peptide FICb = MIC combination antibiotic/MIC single antibiotic
(§2) The FICI value was interpreted as “synergy” (FICI ≤ 0.5), “no interaction” (0.5 < FICI ≤ 4), or “antagonism” (FICI > 4).
(§3) The bacteria were also cultured, subcultured, diluted, and incubated as the methods of the MBIC assay. All experimental groups were included in a peptide and antibiotic co-administration of MIC assay. To ensure that the mixture was evenly dispersed, the plate was placed in a shaker and incubated for 24 h at 37 and 220× g. The plate was twice rinsed with 200 µL of PBS solution following a 24 h incubation period with peptides and diluted bacterial cultures. Each well received a separate addition of 100 μL of methanol and 0.1% crystal violet solution (Sigma-Aldrich, London, UK), which was left there for 20 min. The plate was then carefully cleaned under running water. Following the drying process, each well received 160 µL of acetic acid (33% in dd water, Sigma-Aldrich, UK). Additionally, the absorbance was measured at λ = 595 nm using the Synergy HT plate reader. FICI values were calculated and identified for our peptide and antibiotic co-administration of MIC assay.

[1] = test system: P. aeruginosa ATCC 27853 biofilm; conditions: checkerboard MBIC, 24 h, crystal violet, 595 nm
Procedure: as §1, §2, §3

[2] = test system: P. aeruginosa ATCC BAA-2108 biofilm; conditions: checkerboard MBIC, 24 h, crystal violet, 595 nm
Procedure: as §1, §2, §3

[3] = test system: S. aureus ATCC 6538 biofilm; conditions: checkerboard MBIC, 24 h, crystal violet, 595 nm
Procedure: as §1, §2, §3

MRSA NCTC 12493 biofilm = conditions: checkerboard MBIC, 24 h, crystal violet, 595 nm
Procedure: as §1, §2, §3

[4] = test system: K. pneumoniae ATCC 43816 biofilm; conditions: checkerboard MBIC, 24 h, crystal violet, 595 nm
Procedure: as §1, §2, §3

[5] = test system: A. baumannii BAA 747 biofilm; conditions: checkerboard MBIC, 24 h, crystal violet, 595 nm
Procedure: as §1, §2, §3

[6] = peptide combined with gentamicin

Row | Structure (SMILES) | GM (geometric mean of MICs), G+ Bacteria (G+ Bacteria) [µM] | Biofilm FICI (P. aeruginosa 14 biofilm; peptide combined with cefepime) | Biofilm FICI (P. aeruginosa 14 biofilm; [6]) | Biofilm FICI ([1]; peptide combined with cefepime) | Biofilm FICI [1, 6] | Biofilm FICI ([2]; peptide combined with cefepime) | Biofilm FICI [2, 6] | Biofilm FICI ([3]; peptide combined with cefepime) | Biofilm FICI [3, 6] | Biofilm FICI (MRSA NCTC 12493 biofilm; peptide combined with cefepime) | Biofilm FICI (MRSA NCTC 12493 biofilm; [6]) | Biofilm FICI ([4]; peptide combined with cefepime) | Biofilm FICI [4, 6] | Biofilm FICI ([5]; peptide combined with cefepime) | Biofilm FICI [5, 6]
1 | CC[C@H](C)[C@H](NC(=O)[C@H](CCCCN)NC(=O)[C@H](CCCCN)NC(=O)CNC(=O)[C@H](C)NC(=O)CNC(=O)[C@H](CC(C)C)NC(=O)[C@@H](NC(=O)CNC(=O)[C@H](CO)NC(=O)[C@H](CC(C)C)NC(=O)[C@H](CC(C)C)NC(=O)CN)C(C)C)C(=O)N[C@H](C(=O)N[C@H]1CSSC[C@@H](C(=O)O)NC(=O)[C@H](CCCNC(=N)N)NC(=O)CNC(=O)[C@H](CO)NC(=O)[C@H](CC(C)C)NC(=O)CNC1=O)C(C)C [Nigrosin-6VL] (H-GLLSGVLGAGKKIVCGLSGRC-OH; disulfide 15-21) | 101.59 | 0.25 | 0.5 | 1 | 0.25 | 0.625 | 1 | 1 | 0.5 | 0.75 | 0.375 | 1.25 | 0.5 | 0.5 | 0.5
2 | CC[C@H](C)[C@H](NC(=O)[C@H](CCCCN)NC(=O)[C@H](CCCCN)NC(=O)CNC(=O)[C@H](C)NC(=O)[C@H](CCCNC(=N)N)NC(=O)[C@H](CC(C)C)NC(=O)[C@@H](NC(=O)[C@H](C)NC(=O)[C@H](CCCNC(=N)N)NC(=O)[C@H](CC(C)C)NC(=O)[C@H](CC(C)C)NC(=O)CN)C(C)C)C(=O)N[C@H](C(=O)N[C@H]1CSSC[C@@H](C(=O)O)NC(=O)[C@H](CCCNC(=N)N)NC(=O)CNC(=O)[C@H](CO)NC(=O)[C@H](CC(C)C)NC(=O)CNC1=O)C(C)C [Peptide 2170-2R] (H-GLLRAVLRAGKKIVCGLSGRC-OH; disulfide 15-21) |  | 0.375 | 1 | 0.5 | 0.25 | 1 | >3 | 1 | 0.25 | 0.5 | 1.125 | 3 | 1.125 | 0.625 | 0.75
